Source: publication PMC9227536, “Prediction of Pharmacokinetics of IDP-73152 in Humans Using Physiologically-Based Pharmacokinetics” (Pharmaceutics, 2022)

What was measured:
[1] = Physicochemical properties (Table S3)
[2] = Biliary and renal excretion in bile duct-cannulated rats; type: in vivo; conditions: intravenous 5 mg/kg, up to 8 h
Protocol: Male Sprague Dawley rats (Orient Bio Inc., Seongnam, Korea), weighing 194.7 g to 205.4 g, were used in this study. IDP-73152 was administered to rats at a single dose of 2.5, 5, or 10 mg/kg via tail vein injection (the injection volume fixed at 2 mL/kg in saline). […] Blood samples (100 μL) were collected from the jugular vein at 0.167, 0.33, 0.5, 1, 2, 4, and 8 h after the administration. Plasma was separated/collected by centrifugation of the blood samples for 5 min at 10,000× g/4 °C and stored at −80 °C until analysis. When necessary, the biliary and renal excretion of IDP-73152 were studied in bile duct-cannulated rats after the intravenous injection (5 mg/kg) to investigate its route(s) of excretion in rats. Bile and urine samples were collected up to 8 h (i.e., approximately 5 times of the terminal phase half-life) after the administration and the samples were stored at −80 °C until the analysis. The cumulative excretion of the bile and the urine to infinite time was determined by assuming that the excretion was practically completed by the last collection time.

[3] = Blood partitioning (LC-MS/MS-based depletion method), dog; type: in vitro ADME; conditions: whole blood, dogs blood, 0.3, 1, 3 μM, read-out: BP (blood-to-plasma concentration ratio)
Protocol: In this study, the partitioning of IDP-73152 in blood samples obtained from mice, rats, dogs, and humans was determined using the LC-MS/MS-based depletion method with slight modifications. DP-73152 was added to an aliquot (1 mL) of blank blood or plasma at a final concentration of 0.3, 1, or 3 μM. The mixture was incubated at 37 °C in a water bath for 60 min. After the incubation, the plasma was separated by centrifugation of the blood samples for 5 min at 10,000× g/4 °C and stored at -80 °C until analysis. The blood-to-plasma concentration ratio (BP) was calculated using the equation:(3) BP=[…], where […] is the concentration of the compound at the corresponding blood concentration in the plasma, and CPL is the concentration from the plasma sample separated from the incubated blood.

## CC(C)(C)[C@H](NC(=O)[C@H](CC1CCCC1)CN(O)C=O)C(=O)N1CCC(NCc2cc(F)c(F)cc2F)CC1 [IDP-73152]
[1]
  logP: -0.52
  pKa: 8.8
[2]
  biliary recovery of intact drug: 0.512 ± 0.154 % of the dose
  urinary recovery of intact drug: 1.21 ± 0.48 % of the dose
[3]
  blood plasma ratio at 60 min: 1.45 ± 0.11
